Source: ChEMBL document CHEMBL3611970, “Synthesis and evaluation of isatin-β-thiosemicarbazones as novel agents against antibiotic-resistant Gram-positive bacterial species” (2015)
Values after ≈ are worked out from the molar mass of the structure shown.

Tests used:
Format in all cases: functional
Staphylococcus aureus [1] = experiment: Antimicrobial activity against Staphylococcus aureus ATCC 6538 after 16 hrs by broth microdilution method; details: ATCC 6538, 16 h
Bacillus spizizenii = experiment: Antimicrobial activity against Bacillus subtilis ATCC 6633 after 16 hrs by broth microdilution method; details: ATCC 6633, 16 h
Staphylococcus aureus [2] = experiment: Antimicrobial activity against methicillin-resistant Staphylococcus aureus Chaoyang clinical isolate after 16 hrs by broth microdilution method
Staphylococcus aureus [3] = experiment: Antimicrobial activity against methicillin-resistant Staphylococcus aureus 309-7 clinical isolate after 16 hrs by broth microdilution method; details: 309-7, 16 h
Staphylococcus aureus [4] = experiment: Antimicrobial activity against methicillin-resistant Staphylococcus aureus 8-24 clinical isolate after 16 hrs by broth microdilution method; details: 8-24, 16 h
Staphylococcus aureus [5] = experiment: Antimicrobial activity against methicillin-resistant Staphylococcus aureus 309-4 clinical isolate after 16 hrs by broth microdilution method; details: 309-4, 16 h
Pseudomonas aeruginosa = experiment: Antimicrobial activity against Pseudomonas aeruginosa PAO1 after 16 hrs by broth microdilution method; details: PAO1, 16 h
Staphylococcus aureus [6] = experiment: Antimicrobial activity against methicillin-resistant Staphylococcus aureus 6-42 clinical isolate after 16 hrs by broth microdilution method; details: 6-42, 16 h
Staphylococcus aureus [7] = experiment: Antimicrobial activity against methicillin-resistant Staphylococcus aureus 8-21 clinical isolate after 16 hrs by broth microdilution method; details: 8-21, 16 h
Staphylococcus aureus [8] = experiment: Antimicrobial activity against methicillin-resistant Staphylococcus aureus 309-8 clinical isolate after 16 hrs by broth microdilution method; details: 309-8, 16 h
Enterococcus faecalis [9] = experiment: Antimicrobial activity against Enterococcus faecalis VRE-309 after 16 hrs by broth microdilution method; details: VRE-309, 16 h
Staphylococcus aureus [10] = experiment: Antimicrobial activity against methicillin-resistant Staphylococcus aureus 309-3 clinical isolate after 16 hrs by broth microdilution method; details: 309-3, 16 h
Staphylococcus aureus [11] = experiment: Antimicrobial activity against methicillin-resistant Staphylococcus aureus 309-1 clinical isolate after 16 hrs by broth microdilution method; details: 309-1, 16 h
Staphylococcus aureus [12] = experiment: Antimicrobial activity against methicillin-resistant Staphylococcus aureus 309-6 clinical isolate after 16 hrs by broth microdilution method; details: 309-6, 16 h
Klebsiella pneumoniae = experiment: Antimicrobial activity against Klebsiella pneumoniae KP-249 clinical isolate after 16 hrs by broth microdilution method; details: KP-249, 16 h
Staphylococcus aureus [13] = experiment: Antimicrobial activity against methicillin-resistant Staphylococcus aureus 6281 clinical isolate after 16 hrs by broth microdilution method; details: Staphylococcus aureus, 6281, 16 h
Enterococcus faecalis [14] = experiment: Antimicrobial activity against vancomycin-susceptible Enterococcus faecalis after 16 hrs by broth microdilution method

SMILES	MIC (Staphylococcus aureus [1]) [µg/mL]	MIC (Bacillus spizizenii) [µg/mL]	MIC (Staphylococcus aureus [2]) [µg/mL]	MIC (Staphylococcus aureus [3]) [µg/mL]	MIC (Staphylococcus aureus [4]) [µg/mL]	MIC (Staphylococcus aureus [5]) [µg/mL]	MIC (Pseudomonas aeruginosa) [µg/mL]	MIC (Staphylococcus aureus [6]) [µg/mL]	MIC (Staphylococcus aureus [7]) [µg/mL]	MIC (Staphylococcus aureus [8]) [µg/mL]	MIC (Enterococcus faecalis [9]) [µg/mL]	MIC (Staphylococcus aureus [10]) [µg/mL]	MIC (Staphylococcus aureus [11]) [µg/mL]	MIC (Staphylococcus aureus [12]) [µg/mL]	MIC (Klebsiella pneumoniae) [µg/mL]	MIC (Staphylococcus aureus [13]) [µg/mL]	MIC (Enterococcus faecalis [14]) [µg/mL]
O=C1Nc2ccccc2/C1=N/NC(=S)Nc1ccccc1	3.12 (≈ 10.5 µM)	1.56 (≈ 5.26 µM)	3.12 (≈ 10.5 µM)														
O=C1Nc2ccccc2/C1=N/NC(=S)Nc1ccc(F)cc1	6.25 (≈ 19.9 µM)	1.56 (≈ 4.96 µM)	3.12 (≈ 9.93 µM)														
O=C1Nc2ccc(Br)cc2/C1=N/NC(=S)Nc1ccccc1	6.25 (≈ 16.7 µM)	≤ 0.78	6.25 (≈ 16.7 µM)														
O=C1Nc2ccc([N+](=O)[O-])cc2/C1=N/NC(=S)Nc1ccc(F)cc1	6.25 (≈ 17.4 µM)	25 (≈ 69.6 µM)	12.5 (≈ 34.8 µM)														
O=C1Nc2ccc(F)cc2/C1=N/NC(=S)Nc1ccc(F)cc1	25 (≈ 75.2 µM)	25 (≈ 75.2 µM)	25 (≈ 75.2 µM)														
O=C1Nc2c(F)cccc2/C1=N/NC(=S)Nc1ccccc1	3.12 (≈ 9.93 µM)	≤ 0.78	1.56 (≈ 4.96 µM)														
O=C1Nc2ccc(Cl)cc2/C1=N/NC(=S)Nc1ccc(F)cc1	12.5 (≈ 35.8 µM)	6.25 (≈ 17.9 µM)	3.12 (≈ 8.95 µM)														
O=C1Nc2c(Br)cc([N+](=O)[O-])cc2/C1=N/NC(=S)Nc1ccc(F)cc1	1.56 (≈ 3.56 µM)	≤ 0.78	3.12 (≈ 7.12 µM)														
O=C1Nc2c(Br)cc(Br)cc2/C1=N/NC(=S)Nc1ccc(F)cc1	12.5 (≈ 26.5 µM)	1.56 (≈ 3.3 µM)	6.25 (≈ 13.2 µM)														
O=C1Nc2c(F)cccc2/C1=N/NC(=S)Nc1cccc(F)c1	0.78 (≈ 2.35 µM)	≤ 0.78	0.39 (≈ 1.17 µM)	0.39 (≈ 1.17 µM)	0.78 (≈ 2.35 µM)	0.39 (≈ 1.17 µM)	> 100	0.39 (≈ 1.17 µM)	0.78 (≈ 2.35 µM)	0.78 (≈ 2.35 µM)	1.56 (≈ 4.69 µM)	0.78 (≈ 2.35 µM)	0.78 (≈ 2.35 µM)	1.56 (≈ 4.69 µM)	> 100	1.56 (≈ 4.69 µM)	
O=C1Nc2c(I)cccc2/C1=N/NC(=S)Nc1ccccc1F	3.12 (≈ 7.09 µM)	≤ 0.78	0.78 (≈ 1.77 µM)	0.78 (≈ 1.77 µM)	1.56 (≈ 3.54 µM)	1.56 (≈ 3.54 µM)	> 100	0.78 (≈ 1.77 µM)	1.56 (≈ 3.54 µM)	1.56 (≈ 3.54 µM)	6.25 (≈ 14.2 µM)	3.12 (≈ 7.09 µM)	1.56 (≈ 3.54 µM)	3.12 (≈ 7.09 µM)	> 100	6.25 (≈ 14.2 µM)	12.5 (≈ 28.4 µM)
COc1ccccc1NC(=S)N/N=C1\C(=O)Nc2c(I)cccc21	> 100	1.56 (≈ 3.45 µM)	6.25 (≈ 13.8 µM)	6.25 (≈ 13.8 µM)	12.5 (≈ 27.6 µM)	12.5 (≈ 27.6 µM)	> 100	6.25 (≈ 13.8 µM)	12.5 (≈ 27.6 µM)	12.5 (≈ 27.6 µM)	> 100	25 (≈ 55.3 µM)	12.5 (≈ 27.6 µM)	25 (≈ 55.3 µM)	> 100	25 (≈ 55.3 µM)	> 100
Cc1ccccc1NC(=S)N/N=C1\C(=O)Nc2c(I)cccc21	3.12 (≈ 7.15 µM)	≤ 0.78	0.78 (≈ 1.79 µM)	1.56 (≈ 3.58 µM)	3.12 (≈ 7.15 µM)	1.56 (≈ 3.58 µM)	> 100	0.78 (≈ 1.79 µM)	1.56 (≈ 3.58 µM)	3.12 (≈ 7.15 µM)	6.25 (≈ 14.3 µM)	3.12 (≈ 7.15 µM)	3.12 (≈ 7.15 µM)	6.25 (≈ 14.3 µM)	> 100	6.25 (≈ 14.3 µM)	12.5 (≈ 28.7 µM)
